Assay results taken from patent US20150197480A9 (Academia Sinica, priority 2013, published 2015).
Where two headings read alike, the source gives them in different places.

Legend:
[1] = biological target: T1, GLP-1 receptor (Rattus norvegicus, UniProt P32301); settings: for cAMP production by compound alone: absence of GLP-1; for intrinsic agonistic or antagonistic activity: summary of studies; for effect on GLP-1 dose-response curve / GLP-1 stimulated cAMP production: FIG. 9A
T1 sequence (P32301 22-463): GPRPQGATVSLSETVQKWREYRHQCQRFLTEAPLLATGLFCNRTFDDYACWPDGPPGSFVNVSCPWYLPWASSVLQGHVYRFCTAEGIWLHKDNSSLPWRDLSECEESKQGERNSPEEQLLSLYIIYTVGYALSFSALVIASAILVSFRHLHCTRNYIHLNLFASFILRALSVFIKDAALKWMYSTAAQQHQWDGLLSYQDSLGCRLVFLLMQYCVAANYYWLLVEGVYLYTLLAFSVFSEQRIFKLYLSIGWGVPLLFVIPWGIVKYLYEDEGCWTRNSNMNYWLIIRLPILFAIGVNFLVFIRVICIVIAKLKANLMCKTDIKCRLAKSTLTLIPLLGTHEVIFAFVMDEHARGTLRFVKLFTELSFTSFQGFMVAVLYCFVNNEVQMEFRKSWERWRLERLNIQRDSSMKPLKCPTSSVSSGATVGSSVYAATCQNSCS
From the text: (§1) In the resting stage when the intracellular cAMP is minimal, a large BRET ratio was observed.

[2] = biological target: GLP-1 (Homo sapiens, UniProt P01275); assay: Limited trypsin digestion of GLP-1 peptide; format: biochemical; settings: free GLP-1 or with galanal b; preliminary observation
From the text: This is consistent with the finding that GPCR can exist in multiple active conformations, distinct conformation of the receptor is stabilized by distinct ligand structure and may lead to distinct signaling selectivity (55). […] There are at least two possible mechanisms to account for these observations. […] By binding to and modifying structural conformation of the receptor, the allosteric inhibitor of parturition (PDC 113.824) induces biased signaling when an orthosteric ligand is co-bound to the prostaglandin F2α receptor (56). […] Subtle conformation changes in peptide agonists can lead to selective coupling of the receptor to its downstream signaling pathway. As it has been shown in the case of biased agonist for the type 1 parathyroid hormone receptor (PTH1R) (25) and angiotensin II type 1A receptor ligands (57), subtle structure change of the peptide ligands can profoundly stabilize a distinct conformation of the receptor protein that selectively affects the coupling efficiency of a particular downstream signaling pathway.

[3] = biological target: T2, GLP-1 receptor (Homo sapiens, UniProt P43220); assay: Receptor endocytosis assay, U2OS cells co-expressing GLP-1 receptor and β-arrestin2:GFP; format: cell-based; settings: for positive modulation effect on GLP-1 elicited receptor endocytosis in the presence of exendin 9: FIG. 8, plus 1.8 mM of Exendin 9; for Efficacy of GLP-1 to elicit receptor endocytosis: Table 2, printed (100%), GLP-1 only or GLP-1 plus indicated compound
T2 construct: expressed in transfected cells; host or cells: U2OS osteosarcoma cells stably expressing beta-arrestin2:GFP (Norak Biosciences)
Procedure: U2OS osteosarcoma cell line stably expressing a β-arrestin2:GFP fusion protein was obtained from Norak Biosciences (now Molecular Devices, part of MDS Inc., Mississauga, Ontario). […] Extracts were supplied at a concentration of 100 mg/ml in 100% DMSO. […] Plates were washed with PBS twice and sealed and could be stored at 4° C. The final concentration of the extract in the cell plate was 0.1, 0.03 and 0.001 mg/ml, and the final DMSO concentration was 1%.
Images and data of the cells were performed according to reported methods (51), using an ArrayScan® VTI HCS Reader (Cellomics, Inc. Pittsburgh, Pa.). […] A 20×0.4 numerical aperture microscope objective was used for the imaging, 3 fields were imaged per well, and CELLOMICS's Spot Detector BIOAPPLICATION was used to acquire and analyze the images. For these experiments, the Spot Detector BIOAPPLICATION used the Hoechst-labeled nuclei to identify individual cells and then automatically counted and analyzed the GFP-labeled spots associate with each cell. In addition to the number of spots and the sum of their areas and pixel intensities, the BIOAPPLICATION also reports properties of the individual nuclei such as their area.
One unit of activity is defined as the activity that will reach 50% of maximal response in a well of 384-well plate.
In addition, these processes can be visualized from its image (52), thus easily exclude false positive hits.

[4] = system: cAMP production elicited by glucagon; settings: 0.025 mg/ml; FIG. 11
From the text: as §1

[5] = biological target: T1, GLP-1 receptor; assay: cell-based
From the text: as §1

[6] = system: cAMP production elicited by GIP; settings: 0.025 mg/ml; FIG. 11
From the text: as §1

[7] = biological target: T3, PTHR (Homo sapiens, UniProt Q03431); assay: PTH induced receptor endocytosis, PTHR/β-arrestin 2 GFP U2OS cells; format: cell-based; settings: 15 nM of PTH; FIG. 5B
T3 construct: expressed in transfected cells
T3 sequence (Q03431 27-593): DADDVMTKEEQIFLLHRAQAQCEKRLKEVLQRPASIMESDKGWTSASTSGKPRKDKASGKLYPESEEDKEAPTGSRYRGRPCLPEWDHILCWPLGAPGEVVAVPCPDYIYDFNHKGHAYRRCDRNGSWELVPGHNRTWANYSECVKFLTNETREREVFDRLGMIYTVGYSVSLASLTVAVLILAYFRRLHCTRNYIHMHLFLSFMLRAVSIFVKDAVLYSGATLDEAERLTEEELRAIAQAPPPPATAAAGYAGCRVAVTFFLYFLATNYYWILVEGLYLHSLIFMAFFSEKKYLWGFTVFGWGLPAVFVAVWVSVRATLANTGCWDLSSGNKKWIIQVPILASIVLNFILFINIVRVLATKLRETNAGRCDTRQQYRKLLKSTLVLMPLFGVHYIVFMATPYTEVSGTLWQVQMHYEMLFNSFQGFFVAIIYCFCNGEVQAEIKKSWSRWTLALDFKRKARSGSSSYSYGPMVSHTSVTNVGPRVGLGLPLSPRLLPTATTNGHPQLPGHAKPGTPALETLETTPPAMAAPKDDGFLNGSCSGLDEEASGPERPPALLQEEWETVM
Procedure: The GLP-1R/3-arrestin2 GFP (Panel A) or PTHR/β-arrestin 2 GFP (Panel B) double stable expression U2OS cells were plated in 384-well plastic plates at a density of 3000 cell/well and cultured overnight.
U2OS osteosarcoma cell line stably expressing a β-arrestin2:GFP fusion protein was obtained from Norak Biosciences (now Molecular Devices, part of MDS Inc., Mississauga, Ontario). […] Extracts were supplied at a concentration of 100 mg/ml in 100% DMSO. […] The 3 cell assay plates were incubated at room temperature for 60 min before fixation with 2% formaldehyde and labeling of the cell nuclei with 5 μg/mL of the DNA-binding dye Hoechst 33342 (Molecular Probes, Eugene, Oreg.) for 1 hr. Plates were washed with PBS twice and sealed and could be stored at 4° C. The final concentration of the extract in the cell plate was 0.1, 0.03 and 0.001 mg/ml, and the final DMSO concentration was 1%.

T2 sequence (P43220 24-463, species assumed): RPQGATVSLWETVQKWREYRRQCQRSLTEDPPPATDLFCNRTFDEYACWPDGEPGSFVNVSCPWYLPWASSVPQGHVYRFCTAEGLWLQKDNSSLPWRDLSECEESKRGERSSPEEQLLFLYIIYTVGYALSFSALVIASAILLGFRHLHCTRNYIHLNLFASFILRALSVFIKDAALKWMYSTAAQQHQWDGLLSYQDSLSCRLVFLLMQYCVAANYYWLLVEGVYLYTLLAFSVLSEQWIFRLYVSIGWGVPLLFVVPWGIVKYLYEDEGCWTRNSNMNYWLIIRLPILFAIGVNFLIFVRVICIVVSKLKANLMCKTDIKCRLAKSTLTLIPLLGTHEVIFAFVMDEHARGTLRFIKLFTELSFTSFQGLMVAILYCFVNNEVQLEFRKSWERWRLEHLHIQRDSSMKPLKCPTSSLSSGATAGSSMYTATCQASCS
Chain of GLP-1 (P01275 98-127 limits assumed): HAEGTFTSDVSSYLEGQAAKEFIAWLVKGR

## COC(=O)C1=CC[C@H]2[C@@H](CC[C@H]3C(C)(C)CCC[C@]23C)C(=O)C1 (racemic) [RJ-011, (±)-(6aS,11aS,11bR)-methyl 4,4,11b-trimethyl-7-oxo-2,3,4,4a,5,6,6a,7,8,11,11a,11b-dodecahydro-1H-cyclohepta[a]naphthalene-9-carboxylate]
other
  melting point: 93 to 94 °C

## CC1(C)CCC[C@]2(C)[C@H]3CC=C(CO)C[C@@H](O)[C@@H]3CC[C@@H]12 (racemic) [RJ-013, (±)-(6aS,7R,11aS,11bR)-9-(hydroxymethyl)-4,4,11b-trimethyl-2,3,4,4a,5,6,6a,7,8,11,11a,11b-dodecahydro-1H-cyclohepta[a]naphthalen-7-ol]
other
  melting point: 134 to 135 °C

## COC(=O)[C@@H]1CC[C@H]2C(CC[C@H]3C(C)(C)CCC[C@]23C)C(=O)C1 (mixture of isomers) [RJ-015, (±)-(6aS,11aS,11bR)-methyl 4,4,11b-trimethyl-7-oxotetradecahydro-1H-cyclo-hepta-[a]naphthalene-9-carboxylate]
other
  melting point: 67 to 68 °C

## COc1cc(C2C(NC(=O)c3ccc(NC(=O)OC(C)(C)C)cc3)(C(=O)O)C(c3ccc(OC(=O)c4cccs4)c(OC)c3)C2(NC(=O)c2ccc(NC(=O)OC(C)(C)C)cc2)C(=O)O)ccc1OC(=O)c1cccs1 (stereo not drawn) [Boc5, reference compound]
[1]; RINm5F cells
  concentration needed to stimulate low level cAMP production, fold higher: 1000 fold

## CC[C@H](C)[C@H](NC(=O)[C@H](Cc1ccccc1)NC(=O)[C@H](CCC(=O)O)NC(=O)[C@H](CCCCN)NC(=O)[C@H](C)NC(=O)[C@H](C)NC(=O)[C@H](CCC(N)=O)NC(=O)CNC(=O)[C@H](CCC(=O)O)NC(=O)[C@H](CC(C)C)NC(=O)[C@H](Cc1ccc(O)cc1)NC(=O)[C@H](CO)NC(=O)[C@H](CO)NC(=O)[C@@H](NC(=O)[C@H](CC(=O)O)NC(=O)[C@H](CO)NC(=O)[C@@H](NC(=O)[C@H](Cc1ccccc1)NC(=O)[C@@H](NC(=O)CNC(=O)[C@H](CCC(=O)O)NC(=O)[C@H](C)NC(=O)[C@@H](N)Cc1c[nH]cn1)[C@@H](C)O)[C@@H](C)O)C(C)C)C(=O)N[C@@H](C)C(=O)N[C@@H](Cc1c[nH]c2ccccc12)C(=O)N[C@@H](CC(C)C)C(=O)N[C@H](C(=O)N[C@@H](CCCCN)C(=O)NCC(=O)N[C@@H](CCCNC(=N)N)C(=O)NCC(=O)O)C(C)C [GLP-1]
[2]
  degradation of GLP-1 by limited trypsin digestion: quickly degraded

## Cl.c1ccc(C2CCCC2NC2=NCCCCCCCCCCC2)cc1 (stereo not drawn) [MDL 12330A, reference compound]
[1]; 250 μM
  GLP-1 or forskolin dose response of cAMP (BRET ratio) in presence of inhibitor: eliminated

## COC(=O)C1=CCC2C(CO)(CCC3C(C)(C)CCCC32C)C(=O)C1 [RJ-022, (6aR,1aR,11bS)-methyl6a-(hydroxymethyl)-4,4,11b-trimethyl-7-oxo-2,3,4,4a,5,6,6a,7,8,11,11a,11b-dodecahydro-1H-cyclohepta[a]naphthalene-9-carboxylate]
other
  melting point: 179 to 180 °C

## CC1(C)CCC[C@@]2(C)[C@H]1CC[C@@]1(CO)C(O)CC(CO)=CC[C@@H]12 (stereo partly drawn) [compound 2]
[3]
  positive modulation effect on GLP-1 elicited receptor endocytosis in the presence of exendin 9: diminished
  Efficacy of GLP-1 to elicit receptor endocytosis: 82%
[4]
  effect on cAMP production elicited by glucagon: do not affect
[5]
  EC50: 3.1 µM
[1]; 3 nM of GLP-1, FIG. 9B
  concentration at which enhancement of cAMP production became saturated: 0.03 mg/mL
[1]; 0.0025 mg/ml of compound 2
  left shift of dose response curve of GLP-1: 2.5 orders of magnitude
[1]; FIG. 10A, 10B
  potentiating effect on GLP-1 stimulated cAMP production in presence of exendin 9 or MDL12330A: blocked
[1]; RINm5F cells
  effect on cAMP production by small molecule agonist Boc5: little effect
  potentiation of the affinity of GLP-1 / GLP-1 dependent cAMP production: up to 1000 fold
[1]; RINm5F cells, listed as Compound 2
  potentiation of the affinity of GLP-1 / GLP-1 dependent cAMP production: 1000 fold
[1]
  cAMP production by compound alone: not able to induce cAMP production
  intrinsic agonistic or antagonistic activity: without intrinsic agonistic or antagonistic activity
[1]; listed as Compound 2
  cAMP production by compound alone: does not elicit cAMP production in the absence of GLP-1
[6]
  effect on cAMP production elicited by GIP: do not affect

## CC1(C)CCC[C@@]2(C)C1CC[C@@]1(C=O)[C@H](O)CC(C=O)=CC[C@@H]12 (stereo partly drawn) [galanal B]
[7]
  potentiation effect on PTH induced receptor endocytosis (selectivity): did not show similar effect on PTH and its cognate receptor
[3]; FIG. 5C, 0.001 mg/ml of galanal B
  increase of the affinity of GLP-1: 4 folds
[3]
  positive modulation effect on GLP-1 elicited receptor endocytosis in the presence of exendin 9: diminished
  Efficacy of GLP-1 to elicit receptor endocytosis: 115.2%
[2]
  degradation of GLP-1 by limited trypsin digestion: protects GLP-1 from trypsin degradation
[1]; RINm5F cells
  effect on GLP-1 dose-response curve / GLP-1 stimulated cAMP production: did not significantly affect
[1]; RINm5F cells, listed as galanal b
  effect on GLP-1 dose-response curve / GLP-1 stimulated cAMP production: neutral
[1]; galanal B up to 0.04 mg/ml, FIG. 9B
  cAMP production by 3 nM of GLP-1: not changed
[1]
  intrinsic agonistic or antagonistic activity: without intrinsic agonistic or antagonistic activity

## CC1(C)CCC[C@]2(C)[C@H]3CC=C(C=O)C[C@@H](O)[C@]3(C=O)CC[C@@H]12 [galanal B]
[7]
  potentiation effect on PTH induced receptor endocytosis (selectivity): selective for GLP-1 but not for PTH
[3]; 4 nM GLP-1
  EC50 to potentiate receptor endocytosis elicited by 4 nM GLP-1: 0.24 µg/mL
[3]; 0.0002 mg/ml, 4 nM GLP-1, from 20%
  GLP-1 response potentiated by the fraction: 40%
